Here are results for one compound from patent US7674429B2, “Electrostatic disinfectant delivery” (JohnsonDiversey, Inc., priority 2001, dated 2010).

Data set [1] can be described thus: Conductivity measurement (Accumet Basic AV30, two cell probe). Format: physicochemical. On the procedure: (§1) Various disinfectant compositions were measured to determine associated viscosity, conductivity and/or delivery rate parameters. Viscosity measurements were conducted with a Brookfield DV-III rheometer using procedures well known to those skilled in the art. Conductivity measurements were taken using a conductivity meter (Accumet Basic AV30) instrument using a two cell conductivity probe (epoxy body with a cell constant of 1.0). Delivery rates were determined with a preferred electrostatic delivery apparatus, available through In-Vironmental Integrity, Inc. of Minneapolis, Minn. under the “Aromasys” trademark using standard procedures and protocols.

Data set [2] in a line: Viscosity measurement (Brookfield DV-III rheometer). Format: physicochemical. On the procedure: as §1

`OCCOCCOCCO` [triethylene glycol]: in data set [1], the conductivity is reported as 0.354 uS/cm. In data set [2], this compound had a viscosity of 51.5 cps.
